Target: T1, human PAH with the R408W mutation (Homo sapiens, UniProt P00439, R408W)
T1 construct: expressed in transfected cells
T1 sequence (P00439 1-452 R408W): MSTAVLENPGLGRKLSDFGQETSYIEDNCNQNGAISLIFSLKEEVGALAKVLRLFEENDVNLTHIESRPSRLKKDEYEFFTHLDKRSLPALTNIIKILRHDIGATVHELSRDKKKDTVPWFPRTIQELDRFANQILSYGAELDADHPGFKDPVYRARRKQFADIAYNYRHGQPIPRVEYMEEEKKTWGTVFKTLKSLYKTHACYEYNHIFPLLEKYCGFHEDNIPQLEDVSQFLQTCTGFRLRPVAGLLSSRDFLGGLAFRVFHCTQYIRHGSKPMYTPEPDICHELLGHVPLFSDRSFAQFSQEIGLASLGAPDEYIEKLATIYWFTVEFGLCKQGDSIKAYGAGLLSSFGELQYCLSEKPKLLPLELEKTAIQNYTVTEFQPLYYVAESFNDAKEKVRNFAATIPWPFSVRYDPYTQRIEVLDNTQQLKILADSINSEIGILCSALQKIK
Test: Cell Based Phenylalanine Flux Assay;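 note: after compound treatment, cells received sepiapterin plus isotope-labelled Phenylalanine for 4 hours, then labelled Tyrosine in the medium was quantified, 10-point 2-fold dilution series run in duplicate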
Conditions: A375 cells expressing human PAH R408W; 24 hrs compound incubation; 13C-Tyrosine by LC-MS; average where tested multiple times; read-out: AC50

Row | Structure (SMILES) | AC50
1 | Cc1cc(-c2nnc(C(=O)N3CCc4[nH]cnc4[C@H]3c3cc4c(C)cccn4n3)o2)n[nH]1 [Example 2291, (S)-(5-(5-methyl-1H-pyrazol-3-yl)-1,3,4-oxadiazol-2-yl)(4-(4-methylpyrazolo[1,5-a]pyridin-2-yl)-1,4,6,7-tetrahydro-5H-imidazo[4,5-c]pyridin-5-yl)methanone] | 1000 to 5000 nM
2 | Cc1c[nH]nc1-c1nnc(C(=O)N2CCc3[nH]cnc3[C@H]2c2cc3c(C)cccn3n2)o1 [Example 2292, (S)-(5-(4-methyl-1H-pyrazol-3-yl)-1,3,4-oxadiazol-2-yl)(4-(4-methylpyrazolo[1,5-a]pyridin-2-yl)-1,4,6,7-tetrahydro-5H-imidazo[4,5-c]pyridin-5-yl)methanone] | < 500 nM
3 | Cc1cc(-c2nnc(C(=O)N3CCc4[nH]cnc4[C@@H]3c3cc4c(F)cccn4n3)o2)n[nH]1 [Example 2294, (R)-(4-(4-fluoropyrazolo[1,5-a]pyridin-2-yl)-1,4,6,7-tetrahydro-5H-imidazo[4,5-c]pyridin-5-yl)(5-(5-methyl-1H-pyrazol-3-yl)-1,3,4-oxadiazol-2-yl)methanone] | > 5000 nM
4 | COc1cccn2nc([C@H]3c4nc[nH]c4CCN3c3ncccn3)cc12 [Example 2298, (R)-4-(4-methoxypyrazolo[1,5-a]pyridin-2-yl)-5-(pyrimidin-2-yl)-4,5,6,7-tetrahydro-1H-imidazo[4,5-c]pyridine] | 1000 to 5000 nM
5 | COc1cccn2nc([C@@H]3c4nc[nH]c4CCN3c3ncccn3)cc12 [Example 2299, (S)-4-(4-methoxypyrazolo[1,5-a]pyridin-2-yl)-5-(pyrimidin-2-yl)-4,5,6,7-tetrahydro-1H-imidazo[4,5-c]pyridine] | < 500 nM
6 | Cc1cccn2nc([C@@H]3c4nc[nH]c4CCN3c3ccccc3)cc12 [Example 2311, (S)-4-(4-methylpyrazolo[1,5-a]pyridin-2-yl)-5-phenyl-4,5,6,7-tetrahydro-1H-imidazo[4,5-c]pyridine] | < 500 nM
7 | Fc1cccn2nc([C@H]3c4nc[nH]c4CCN3c3ccccc3)cc12 [Example 2312, (R)-4-(4-fluoropyrazolo[1,5-a]pyridin-2-yl)-5-phenyl-4,5,6,7-tetrahydro-1H-imidazo[4,5-c]pyridine] | 1000 to 5000 nM
8 | Fc1cccn2nc([C@@H]3c4nc[nH]c4CCN3c3ccccc3)cc12 [Example 2313, (S)-4-(4-fluoropyrazolo[1,5-a]pyridin-2-yl)-5-phenyl-4,5,6,7-tetrahydro-1H-imidazo[4,5-c]pyridine] | < 500 nM
9 | FC(F)(F)Oc1cccn2nc([C@@H]3c4nc[nH]c4CCN3c3nnc(C4CC4)o3)cc12 [Example 2314, (S)-2-cyclopropyl-5-(4-(4-(trifluoromethoxy)pyrazolo[1,5-a]pyridin-2-yl)-1,4,6,7-tetrahydro-5H-imidazo[4,5-c]pyridin-5-yl)-1,3,4-oxadiazole] | < 500 nM
10 | FC(F)(F)Oc1cccn2nc([C@@H]3c4nc[nH]c4CCN3c3ncc(C(F)(F)F)cn3)cc12 [Example 2316, (S)-4-(4-(trifluoromethoxy)pyrazolo[1,5-a]pyridin-2-yl)-5-(5-(trifluoromethyl)pyrimidin-2-yl)-4,5,6,7-tetrahydro-1H-imidazo[4,5-c]pyridine] | < 500 nM
11 | FC(F)Oc1cccn2nc([C@H]3c4nc[nH]c4CCN3c3cnccn3)cc12 [Example 2318, (R)-4-(4-(difluoromethoxy)pyrazolo[1,5-a]pyridin-2-yl)-5-(pyrazin-2-yl)-4,5,6,7-tetrahydro-1H-imidazo[4,5-c]pyridine] | > 5000 nM
12 | CC(F)(F)c1nnc(N2CCc3[nH]cnc3[C@H]2c2cc3cccc(Cl)n3n2)o1 [Example 2327, (S)-2-(4-(7-chloropyrazolo[1,5-a]pyridin-2-yl)-1,4,6,7-tetrahydro-5H-imidazo[4,5-c]pyridin-5-yl)-5-(1,1-difluoroethyl)-1,3,4-oxadiazole] | 1000 to 5000 nM

Results, then the compound that gave them:

Row | AC50 | Structure (SMILES)
13 | < 500 nM | Cc1cccnc1-c1nnc(N2CCc3[nH]cnc3[C@H]2c2cc3c(F)cccn3n2)o1 [Example 2280, (S)-2-(4-(4-fluoropyrazolo[1,5-a]pyridin-2-yl)-1,4,6,7-tetrahydro-5H-imidazo[4,5-c]pyridin-5-yl)-5-(3-methylpyridin-2-yl)-1,3,4-oxadiazole]
14 | > 5000 nM | Cc1cccnc1-c1nnc(N2CCc3[nH]cnc3[C@@H]2c2cc3c(C4CC4)cccn3n2)o1 [Example 2282, (R)-2-(4-(4-cyclopropylpyrazolo[1,5-a]pyridin-2-yl)-1,4,6,7-tetrahydro-5H-imidazo[4,5-c]pyridin-5-yl)-5-(3-methylpyridin-2-yl)-1,3,4-oxadiazole]
15 | < 500 nM | Cc1cccnc1-c1nnc(N2CCc3[nH]cnc3[C@H]2c2cc3c(C4CC4)cccn3n2)o1 [Example 2283, (S)-2-(4-(4-cyclopropylpyrazolo[1,5-a]pyridin-2-yl)-1,4,6,7-tetrahydro-5H-imidazo[4,5-c]pyridin-5-yl)-5-(3-methylpyridin-2-yl)-1,3,4-oxadiazole]
16 | > 5000 nM | Cc1cccnc1-c1nnc(N2CCc3[nH]cnc3[C@@H]2c2cc3c(C(C)C)cccn3n2)o1 [Example 2284, (R)-2-(4-(4-isopropylpyrazolo[1,5-a]pyridin-2-yl)-1,4,6,7-tetrahydro-5H-imidazo[4,5-c]pyridin-5-yl)-5-(3-methylpyridin-2-yl)-1,3,4-oxadiazole]
17 | < 500 nM | Cc1cccnc1-c1nnc(N2CCc3[nH]cnc3[C@H]2c2cc3c(C(C)C)cccn3n2)o1 [Example 2285, (S)-2-(4-(4-isopropylpyrazolo[1,5-a]pyridin-2-yl)-1,4,6,7-tetrahydro-5H-imidazo[4,5-c]pyridin-5-yl)-5-(3-methylpyridin-2-yl)-1,3,4-oxadiazole]
18 | > 5000 nM | Cc1cccnc1-c1nnc(N2CCc3[nH]cnc3[C@@H]2c2cc3c(Cl)cccn3n2)o1 [Example 2286, (R)-2-(4-(4-chloropyrazolo[1,5-a]pyridin-2-yl)-1,4,6,7-tetrahydro-5H-imidazo[4,5-c]pyridin-5-yl)-5-(3-methylpyridin-2-yl)-1,3,4-oxadiazole]
19 | < 500 nM | Fc1cccnc1-c1nnc(N2CCc3[nH]cnc3[C@H]2c2cc3c(F)cccn3n2)o1 [Example 2289, (S)-2-(4-(4-fluoropyrazolo[1,5-a]pyridin-2-yl)-1,4,6,7-tetrahydro-5H-imidazo[4,5-c]pyridin-5-yl)-5-(3-fluoropyridin-2-yl)-1,3,4-oxadiazole]
20 | > 5000 nM | Cc1c[nH]nc1-c1nnc(C(=O)N2CCc3[nH]cnc3[C@@H]2c2cc3c(C)cccn3n2)o1 [Example 2293, (R)-(5-(4-methyl-1H-pyrazol-3-yl)-1,3,4-oxadiazol-2-yl)(4-(4-methylpyrazolo[1,5-a]pyridin-2-yl)-1,4,6,7-tetrahydro-5H-imidazo[4,5-c]pyridin-5-yl)methanone]
21 | 500 to 1000 nM | CC(C)c1nnc(N2CCc3[nH]cnc3[C@H]2c2cc3ccccn3n2)o1 [Example 2301, (S)-2-isopropyl-5-(4-(pyrazolo[1,5-a]pyridin-2-yl)-1,4,6,7-tetrahydro-5H-imidazo[4,5-c]pyridin-5-yl)-1,3,4-oxadiazole]
22 | < 500 nM | Cc1cccn2nc([C@@H]3c4nc[nH]c4CCN3c3nnc(C(C)C)o3)cc12 [Example 2303, (S)-2-isopropyl-5-(4-(4-methylpyrazolo[1,5-a]pyridin-2-yl)-1,4,6,7-tetrahydro-5H-imidazo[4,5-c]pyridin-5-yl)-1,3,4-oxadiazole]
23 | 500 to 1000 nM | CC(C)c1nnc(N2CCc3[nH]cnc3[C@H]2c2cc3c(C(F)(F)F)cccn3n2)o1 [Example 2305, (S)-2-isopropyl-5-(4-(4-(trifluoromethyl)pyrazolo[1,5-a]pyridin-2-yl)-1,4,6,7-tetrahydro-5H-imidazo[4,5-c]pyridin-5-yl)-1,3,4-oxadiazole]
24 | > 5000 nM | Cc1cccnc1-c1nnc(N2CCc3[nH]cnc3[C@@H]2c2cc3cccc(C)n3n2)o1 [Example 2308, (R)-2-(4-(7-methylpyrazolo[1,5-a]pyridin-2-yl)-1,4,6,7-tetrahydro-5H-imidazo[4,5-c]pyridin-5-yl)-5-(3-methylpyridin-2-yl)-1,3,4-oxadiazole]
25 | 500 to 1000 nM | Cc1cccnc1-c1nnc(N2CCc3[nH]cnc3[C@H]2c2cc3cccc(C)n3n2)o1 [Example 2309, (S)-2-(4-(7-methylpyrazolo[1,5-a]pyridin-2-yl)-1,4,6,7-tetrahydro-5H-imidazo[4,5-c]pyridin-5-yl)-5-(3-methylpyridin-2-yl)-1,3,4-oxadiazole]
26 | > 5000 nM | CC(C)c1nnc(N2CCc3[nH]cnc3[C@@H]2c2cc3c(F)cccn3n2)o1 [Example 2322, (R)-2-(4-(4-fluoropyrazolo[1,5-a]pyridin-2-yl)-1,4,6,7-tetrahydro-5H-imidazo[4,5-c]pyridin-5-yl)-5-isopropyl-1,3,4-oxadiazole]
27 | > 5000 nM | CC(C)c1nnc(N2CCc3[nH]cnc3[C@@H]2c2cc3c(Cl)cccn3n2)o1 [Example 2324, (R)-2-(4-(4-chloropyrazolo[1,5-a]pyridin-2-yl)-1,4,6,7-tetrahydro-5H-imidazo[4,5-c]pyridin-5-yl)-5-isopropyl-1,3,4-oxadiazole]
28 | < 500 nM | CC(C)c1nnc(N2CCc3[nH]cnc3[C@H]2c2cc3c(Cl)cccn3n2)o1 [Example 2325, (S)-2-(4-(4-chloropyrazolo[1,5-a]pyridin-2-yl)-1,4,6,7-tetrahydro-5H-imidazo[4,5-c]pyridin-5-yl)-5-isopropyl-1,3,4-oxadiazole]
